Laboratory results as given in PubChem BioAssay AID248 (DTP/NCI, 2004).
Values joined by “and” are separate entries in the source; they are usually repeats but may differ in a detail not shown here. Identical values can stand only once. Toxic doses and inconclusive results are not listed. Cut-off read from the data, not from the text of the source: active = T/C of 150% or more; inactive = T/C below 125%.

Test system: L1210 leukemia ip in BDF1 mice, survival T/C
Test: NCI In Vivo Anticancer Drug Screen. Data for tumor model L1210 Leukemia (intraperitoneal) in B6D2F1 (BDF1) mice
Conditions: higher = longer survival
Outline: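 Read-out is survival time, reported as the treated-group measurement over the vehicle-control measurement.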

[1] = endpoint: mean survival time, dose: 100.0 mg/kg/injection, schedule: Q01DX001 (ip), vehicle: saline with Tween-80
[2] = endpoint: mean survival time, dose: 200.0 mg/kg/injection, schedule: Q01DX001 (ip), vehicle: saline with Tween-80
[3] = endpoint: mean survival time, dose: 100.0 mg/kg/injection, schedule: Q04DX003 (ip), vehicle: Klucel (hydroxypropylcellulose) (HPC)
[4] = endpoint: mean survival time, dose: 25.0 mg/kg/injection, schedule: Q01DX001 (ip), vehicle: saline with Tween-80
[5] = endpoint: mean survival time, dose: 50.0 mg/kg/injection, schedule: Q01DX001 (ip), vehicle: saline with Tween-80

Measured: T/C

CNNCc1ccc(C(=O)NC(C)C)cc1
active: endpoint: mean survival time, dose: 25.0 mg/kg/injection, schedule: Q#A X020 (ip), vehicle: saline 151 % of control | endpoint: mean survival time, dose: 50.0 mg/kg/injection, schedule: Q#A X020 (ip), vehicle: saline 157 % of control | endpoint: mean survival time, dose: 62.0 mg/kg/injection, schedule: Q01DX009 (ip), vehicle: saline 155 % of control | endpoint: mean survival time, dose: 64.0 mg/kg/injection, schedule: Q03HX024 (ip), vehicle: saline 157 % of control | endpoint: mean survival time, dose: 100.0 mg/kg/injection, schedule: Q01DX010 (ip), vehicle: saline 151 % of control | endpoint: mean survival time, dose: 100.0 mg/kg/injection, schedule: Q01DX010 (oral), vehicle: saline 159 % of control | endpoint: mean survival time, dose: 125.0 mg/kg/injection, schedule: Q01DX009 (ip), vehicle: clinical formulation 158 % of control | endpoint: mean survival time, dose: 125.0 mg/kg/injection, schedule: Q01DX009 (ip), vehicle: saline 167 % of control | endpoint: mean survival time, dose: 128.0 mg/kg/injection, schedule: Q01DX009 (oral), vehicle: saline 155 % of control and 164 % of control | endpoint: mean survival time, dose: 133.0 mg/kg/injection, schedule: Q01DX009 (ip), vehicle: saline 150 % of control | endpoint: mean survival time, dose: 150.0 mg/kg/injection, schedule: Q01DX009 (ip), vehicle: saline 159 % of control | endpoint: mean survival time, dose: 250.0 mg/kg/injection, schedule: Q01DX009 (ip), vehicle: clinical formulation 184 % of control | endpoint: mean survival time, dose: 250.0 mg/kg/injection, schedule: Q01DX009 (ip), vehicle: water 188 % of control | endpoint: mean survival time, dose: 300.0 mg/kg/injection, schedule: Q01DX009 (ip), vehicle: saline 166 % of control | endpoint: mean survival time, dose: 512.0 mg/kg/injection, schedule: Q04DX003 (ip), vehicle: saline 155 % of control | endpoint: mean survival time, dose: 512.0 mg/kg/injection, schedule: Q04DX003 (oral), vehicle: saline 151 % of control | endpoint: median survival time, dose: 300.0 mg/kg/injection, schedule: Q01DX009 (ip), vehicle: saline 166 % of control and 170 % of control
inactive: endpoint: mean survival time, dose: 6.5 mg/kg/injection, schedule: Q01DX009 (ip), vehicle: saline 110 % of control and 112 % of control | endpoint: mean survival time, dose: 8.0 mg/kg/injection, schedule: Q01DX009 (ip), vehicle: saline 121 % of control | endpoint: mean survival time, dose: 12.0 mg/kg/injection, schedule: Q04DX002 (ip), vehicle: saline 93 % of control and 91 % of control | endpoint: mean survival time, dose: 13.0 mg/kg/injection, schedule: Q01DX Z (ip), vehicle: saline 117 % of control | endpoint: mean survival time, dose: 16.0 mg/kg/injection, schedule: Q01DX009 (oral), vehicle: saline 116 % of control | endpoint: mean survival time, dose: 16.0 mg/kg/injection, schedule: Q03HX008 (ip), vehicle: saline 106 % of control | endpoint: mean survival time, dose: 16.0 mg/kg/injection, schedule: Q03HX016 (ip), vehicle: saline 112 % of control | endpoint: mean survival time, dose: 16.0 mg/kg/injection, schedule: Q03HX016 (oral), vehicle: saline 106 % of control | endpoint: mean survival time, dose: 19.0 mg/kg/injection, schedule: Q01DX Z (ip), vehicle: saline 117 % of control | endpoint: mean survival time, dose: 24.0 mg/kg/injection, schedule: Q04DX002 (ip), vehicle: saline 97 % of control | endpoint: mean survival time, dose: 25.0 mg/kg/injection, schedule: Q01DX009 (ip), vehicle: saline 110 % of control and 117 % of control | endpoint: mean survival time, dose: 32.0 mg/kg/injection, schedule: Q03HX008 (ip), vehicle: saline 112 % of control | endpoint: mean survival time, dose: 32.0 mg/kg/injection, schedule: Q03HX016 (ip), vehicle: saline 117 % of control | endpoint: mean survival time, dose: 37.5 mg/kg/injection, schedule: Q01DX009 (ip), vehicle: saline 120 % of control and 123 % of control | endpoint: mean survival time, dose: 64.0 mg/kg/injection, schedule: Q03HX008 (ip), vehicle: saline 110 % of control | endpoint: mean survival time, dose: 128.0 mg/kg/injection, schedule: Q01DX001 (ip), vehicle: saline 109 % of control | endpoint: mean survival time, dose: 128.0 mg/kg/injection, schedule: Q01DX001 (iv), vehicle: saline 104 % of control | endpoint: mean survival time, dose: 128.0 mg/kg/injection, schedule: Q01DX001 (oral), vehicle: saline 106 % of control | endpoint: mean survival time, dose: 128.0 mg/kg/injection, schedule: Q03HX008 (ip), vehicle: saline 121 % of control | endpoint: mean survival time, dose: 128.0 mg/kg/injection, schedule: Q04DX003 (ip), vehicle: saline 121 % of control | endpoint: mean survival time, dose: 128.0 mg/kg/injection, schedule: Q08DX002 (oral), vehicle: saline 106 % of control | endpoint: mean survival time, dose: 250.0 mg/kg/injection, schedule: Q01DX001 (ip), vehicle: saline 112 % of control and 121 % of control | endpoint: mean survival time, dose: 256.0 mg/kg/injection, schedule: Q01DX001 (iv), vehicle: saline 99 % of control | endpoint: mean survival time, dose: 256.0 mg/kg/injection, schedule: Q01DX001 (oral), vehicle: saline 110 % of control | endpoint: mean survival time, dose: 256.0 mg/kg/injection, schedule: Q08DX002 (ip), vehicle: saline 104 % of control | endpoint: mean survival time, dose: 320.0 mg/kg/injection, schedule: Q01DX010 (oral), vehicle: saline 117 % of control | endpoint: mean survival time, dose: 400.0 mg/kg/injection, schedule: Q01DX010 (im), vehicle: saline 86 % of control | endpoint: mean survival time, dose: 400.0 mg/kg/injection, schedule: Q01DX010 (oral), vehicle: saline 116 % of control | endpoint: mean survival time, dose: 400.0 mg/kg/injection, schedule: Q01DX010 (sc), vehicle: saline 90 % of control | endpoint: mean survival time, dose: 758.0 mg/kg/injection, schedule: Q04DX002 (ip), vehicle: saline 103 % of control | endpoint: median survival time, dose: 500.0 mg/kg/injection, schedule: Q01DX009 (ip), vehicle: saline 49 % of control and 54 % of control

CCCCCCCCCCCCCC(C1CCCCC1)C1CCCCC1
inactive: [1] 113 % of control | [2] 93 % of control | endpoint: mean survival time, dose: 400.0 mg/kg/injection, schedule: Q01DX001 (ip), vehicle: saline with Tween-80 95 % of control

CC(=O)OC1OC(CS[As](C)C)C(OC(C)=O)C(OC(C)=O)C1OC(C)=O (stereo not drawn)
inactive: [3] 94 % of control | endpoint: mean survival time, dose: 200.0 mg/kg/injection, schedule: Q04DX003 (ip), vehicle: Klucel (hydroxypropylcellulose) (HPC) 105 % of control

O=c1c(Br)c(-c2ccccc2)nc2ccccn12
inactive: [4] 91 % of control | [5] 91 % of control | [1] 95 % of control

NC(=O)OCCCl
inactive: endpoint: mean survival time, dose: 100.0 mg/kg/injection, schedule: Q04DX002 (ip), vehicle: saline 98 % of control | endpoint: mean survival time, dose: 200.0 mg/kg/injection, schedule: Q04DX002 (ip), vehicle: saline 109 % of control | endpoint: mean survival time, dose: 400.0 mg/kg/injection, schedule: Q04DX002 (ip), vehicle: saline 102 % of control

COc1ccc(OC)c2c(C(O)CNC34CC5CC(CC(C5)C3)C4)cc(-c3ccc(Cl)cc3)nc12 (stereo not drawn)
inactive: endpoint: mean survival time, dose: 100.0 mg/kg/injection, schedule: Q04DX003 (ip), vehicle: saline 97 % of control | endpoint: mean survival time, dose: 200.0 mg/kg/injection, schedule: Q04DX003 (ip), vehicle: saline 92 % of control | endpoint: mean survival time, dose: 400.0 mg/kg/injection, schedule: Q04DX003 (ip), vehicle: saline 92 % of control

CSc1cc2c(cc1NC(C)=O)Cc1ccccc1-2
inactive: endpoint: mean survival time, dose: 100.0 mg/kg/injection, schedule: Q01DX001 (ip), vehicle: carboxymethylcellulose (CMC) 93 % of control | endpoint: mean survival time, dose: 200.0 mg/kg/injection, schedule: Q01DX001 (ip), vehicle: carboxymethylcellulose (CMC) 95 % of control | endpoint: mean survival time, dose: 400.0 mg/kg/injection, schedule: Q01DX001 (ip), vehicle: carboxymethylcellulose (CMC) 95 % of control

CC(C)(C1c2ccccc2C(=NO)c2ccccc21)[N+](=O)[O-] (stereo not drawn)
inactive: endpoint: mean survival time, dose: 100.0 mg/kg/injection, schedule: Q01DX009 (ip), vehicle: saline with Tween-80 98 % of control | endpoint: mean survival time, dose: 100.0 mg/kg/injection, schedule: Q04DX003 (ip), vehicle: saline with Tween-80 95 % of control | endpoint: mean survival time, dose: 200.0 mg/kg/injection, schedule: Q01DX009 (ip), vehicle: saline with Tween-80 94 % of control | endpoint: mean survival time, dose: 200.0 mg/kg/injection, schedule: Q04DX003 (ip), vehicle: saline with Tween-80 95 % of control | endpoint: mean survival time, dose: 400.0 mg/kg/injection, schedule: Q01DX009 (ip), vehicle: saline with Tween-80 94 % of control | endpoint: mean survival time, dose: 400.0 mg/kg/injection, schedule: Q04DX003 (ip), vehicle: saline with Tween-80 98 % of control

CCOC(=O)c1ccc(CCCCl)cc1
inactive: endpoint: mean survival time, dose: 100.0 mg/kg/injection, schedule: Q01DX001 (ip), vehicle: Klucel (hydroxypropylcellulose) (HPC) 98 % of control | endpoint: mean survival time, dose: 200.0 mg/kg/injection, schedule: Q01DX001 (ip), vehicle: Klucel (hydroxypropylcellulose) (HPC) 88 % of control | endpoint: mean survival time, dose: 400.0 mg/kg/injection, schedule: Q01DX001 (ip), vehicle: Klucel (hydroxypropylcellulose) (HPC) 91 % of control

C=C1CCC(c2ccccc2)N(C)C1=O (stereo not drawn)
inactive: [4] 104 % of control | [5] 101 % of control | [1] 98 % of control | [2] 98 % of control

CCC[CH2][Ge]([Cl])([Cl])[CH2]CCC
inactive: endpoint: mean survival time, dose: 25.0 mg/kg/injection, schedule: Q01DX009 (ip), vehicle: Klucel (hydroxypropylcellulose) (HPC) 89 % of control | endpoint: mean survival time, dose: 25.0 mg/kg/injection, schedule: Q04DX003 (ip), vehicle: Klucel (hydroxypropylcellulose) (HPC) 93 % of control | endpoint: mean survival time, dose: 50.0 mg/kg/injection, schedule: Q01DX009 (ip), vehicle: Klucel (hydroxypropylcellulose) (HPC) 94 % of control | endpoint: mean survival time, dose: 50.0 mg/kg/injection, schedule: Q04DX003 (ip), vehicle: Klucel (hydroxypropylcellulose) (HPC) 96 % of control | [3] 106 % of control
